Laboratory results published in the NIST ThermoML archive (doi:10.1021/je8001464).
± gives the expanded uncertainty stated by the source.

Experiment: mn = molality of the nth substance listed, in mol/kg
Settings: 101 kPa, Liquid

NCC(=O)O [2-aminoacetic acid] + O
Settings	mass density [kg/m3]
288.15 K, m1 = 0.07326	1001.51 ± 0.17
288.15 K, m1 = 0.1458	1003.85 ± 0.17
288.15 K, m1 = 0.2326	1006.63 ± 0.18
288.15 K, m1 = 0.2824	1008.21 ± 0.18
288.15 K, m1 = 0.3277	1009.64 ± 0.19
288.15 K, m1 = 0.4371	1013.07 ± 0.19
298.15 K, m1 = 0.1536	1001.88 ± 0.17
298.15 K, m1 = 0.2528	1004.96 ± 0.18
298.15 K, m1 = 0.302	1006.47 ± 0.18
298.15 K, m1 = 0.3469	1007.84 ± 0.18
298.15 K, m1 = 0.4593	1011.25 ± 0.19
308.15 K, m1 = 0.07746	993.053 ± 0.18
308.15 K, m1 = 0.2534	998.473 ± 0.17
308.15 K, m1 = 0.3017	999.939 ± 0.17
308.15 K, m1 = 0.3466	1001.29 ± 0.17
308.15 K, m1 = 0.4586	1004.65 ± 0.18
318.15 K, m1 = 0.1525	994.942 ± 0.18
318.15 K, m1 = 0.2564	998.093 ± 0.17
318.15 K, m1 = 0.3091	999.679 ± 0.17
318.15 K, m1 = 0.3656	1001.36 ± 0.17
318.15 K, m1 = 0.4809	1004.79 ± 0.18

[Cl-].[Cl-].[Zn+2] [zinc chloride] + O
mass density [kg/m3]
Settings	288.15 K	298.15 K	308.15 K	318.15 K
m1 = 0.1	1011.64 ± 0.57	1009.38 ± 0.55	1005.93 ± 0.53	1002.03 ± 0.51
m1 = 0.5	1058.86 ± 0.86	1055.44 ± 0.84	1047.95 ± 0.79	1043.29 ± 0.76
m1 = 1	1113.88 ± 1.2	1106.55 ± 1.2	1097.59 ± 1.1	1090.83 ± 1.1
m1 = 1.5	1160.53 ± 1.5	1152.82 ± 1.5	1142.54 ± 1.4	1135.27 ± 1.4
